Data: patent publication US9133206B2, “Benzodiazepine and pyridodiazepine derivatives” (AbbVie Inc., priority 2010, dated 2015)

System: SK-N-SH human neuroblastoma cells
Test: Serum Deprivation/JC-1 Mitochondrial Membrane Potential (MMP) Assay
Type: cell-based
Details: for EC50: serum deprivation ~18 hours, JC-1 ratio normalized to peak value for 10 μM dimebolin, single curve fit to mean data of n=2-3; for Emax / JC-1 max %: percent maximal intensity in JC-1 ratio normalized to peak value for 10 μM dimebolin, serum deprivation; for Emax: read-out: JC-1 max %
Source text: The method also involves a high-throughput assay using serum-deprivation conditions involving neuronal cells to screen for compounds that increase or preserve mitochondrial membrane potential. Such compounds can be found to aid in rescuing cells from energy-depletion that occurs in several neurodegenerative states. Mitochondrial-mediated apoptosis occurs in response to a wide range of apoptotic stimuli including p^53, c-myc, DNA damage, prooxidants, chemotherapeutic agents, serum starvation and death receptor activation (Lin C—H., Lu Y-Z., Cheng, F-C., Chu L-F. and Hsuch C-M. Bax-regulated mitochondrial-mediated apoptosis is responsible for the in vitro ischemia induced neuronal cell death of Sprague Dawley rat. Neuroscience Lett. 2005, 387, 22-27).
Thus, this stress inducer, serum deprivation, combined with monitoring changes in the mitochondrial membrane potential in a 96-well format allows for the establishment of an efficient high-throughput screen (HTS) in order to evaluate the ability of compounds to increase mitochondrial membrane potential in the presence of stress and preserve health of the cell. Exemplary procedures for conducting such high-throughput assay are provided below.
SK-N-SH human neuroblastoma cells obtained from American Type Culture Collection (Rockville, Md.) were maintained in the log phase of growth in Minimal Essential Media (MEM), 10% heat inactivated fetal calf serum and 100 units/mL antibiotic-antimycotic (AA). Cells were cultured and maintained in a humidified incubator at 37° C. under 5% CO2 and 95% air. Cells were trypsinized (0.25%) and subcultured every 3 days and used from 15-18 passages. All cell culture supplies were obtained from Invitrogen (Carlsbad, Calif.).
SK-N-SH cells were plated 2-3 days in advance at a concentration of 50,000 cells/well onto collagen coated black-walled 96 well plates (Becton-Dickinson, Bedford, Mass.) in a total volume of […]. On day of experimental treatment, the media containing serum was aspirated from each well and rinsed once with MEM/1% AA without serum. The cells then were incubated overnight in 100 μL of MEM/1% AA (no serum) with and without dimebolin or novel chemical entities overnight for ˜18 hours. The following day, JC-1 dye (5,5′,6,6′-tetrachloro-1,1′,3,3′-tetraethylbenzimidazolcarbocyanide) was diluted 1:10 into MEM media according to the JC-1 Mitochondrial Membrane Potential Assay Kit: (Cayman Chemical Company, Ann Arbor, Mich.) and then 10 μL of the JC-1 dye solution was added to each well. The plates were centrifuged for 5 minutes at 400×g at room temperature followed by 40 minute incubation at 37° C. The plates were washed twice with 200 μL of provided Assay Buffer followed an addition of 100 μL of Assay Buffer to each well. The plates were read with an excitation and emission of 560 nm and 595 nM for red fluorescence and with an excitation and emission of 485 nm and 535 nM for green fluorescence to determine the final JC-1 value taking the red to green fluorescence ratio. This assay is based on change in mitochondrial membrane potential (MMP) using this lipophilic cationic dye, JC-1, by monitoring the changes in the ratio of red to green fluorescence as the MMP depolarizes. This change in MMP reflects the health of the cell with healthy, viable cells have a high JC-1 ratio and high MMP whereas apoptotic, unhealthy cells have a low JC-1 ratio or low MMP.
For the ability of compounds to reverse the stress due to serum deprivation and increase the JC-1 ratio, the percent maximal intensity in JC-1 ratio was normalized to that induced by the peak value for 10 μM dimebolin and plotted against the compound concentration to calculate EC50 values and to control for plate-to-plate variability. Concentration-response data were analyzed using GraphPad Prism (San Diego, Calif.); the EC50 values were derived from a single curve fit to the mean data of n=2-3, in duplicates. […]

## O=C([C@@H]1C[C@H]1c1ccccc1)N1Cc2ccccc2N2CCN(Cc3ccccc3)CC2C1 (relative stereo) [Example 15, (3-benzyl-1,2,3,4,4a,5-hexahydropyrazino[1,2-a][1,4]benzodiazepin-6(7H)-yl)[trans-2-phenylcyclopropyl]methanone]
Homo sapiens, SK-N-SH, 18 h
  EC50: 2.19 µM
Homo sapiens, SK-N-SH
  Emax: 225%

## Fc1ccc(CN2CCN3c4ccccc4CN(Cc4ccc(Br)cc4)C[C@H]3C2)cc1 (single isomer, unassigned) [Example 61]
Homo sapiens, SK-N-SH, 18 h
  EC50: 2.57 µM
Homo sapiens, SK-N-SH
  Emax: 213%

## Fc1ccc(CN2CCN3c4ccccc4CN(Cc4ccc(Br)cc4)C[C@@H]3C2)cc1 (single isomer, unassigned) [Example 62]
Homo sapiens, SK-N-SH, 18 h
  EC50: 3.65 µM
Homo sapiens, SK-N-SH
  Emax: 161%

## Brc1ccc(CN2Cc3ccccc3N3CCN(Cc4ccccc4)CC3C2)cc1 (single isomer, unassigned; (+)) [Example 19, (+)-3-benzyl-6-(4-bromobenzyl)-1,2,3,4,4a,5,6,7-octahydropyrazino[1,2-a][1,4]benzodiazepine]
  JC-1 max %: 169%
  EC50: 1.56 µM

## Brc1ccc(CN2Cc3ccccc3N3CCN(Cc4ccccc4)CC3C2)cc1 (single isomer, unassigned; (-)) [Example 18, (−)-3-benzyl-6-(4-bromobenzyl)-1,2,3,4,4a,5,6,7-octahydropyrazino[1,2-a][1,4]benzodiazepine]
  JC-1 max %: 178%
  EC50: 2.72 µM

## CC(C)(C)OC(=O)N1CCN2c3ccccc3CNC(=O)C2C1 (stereo not drawn) [Example 1, tert-butyl 5-oxo-1,2,4a,5,6,7-hexahydropyrazino[1,2-a][1,4]benzodiazepine-3(4H)-carboxylate]
Homo sapiens, SK-N-SH, 18 h
  EC50: 9.59 µM
Homo sapiens, SK-N-SH
  Emax: 88%

## c1ccc(CN2CCN3c4ccccc4CNCC3C2)cc1 (stereo not drawn) [Example 2, 3-benzyl-1,2,3,4,4a,5,6,7-octahydropyrazino[1,2-a][1,4]benzodiazepine]
Homo sapiens, SK-N-SH, 18 h
  EC50: 3.44 µM
Homo sapiens, SK-N-SH
  Emax: 186%

## Brc1ccc(CN2Cc3ccccc3N3CCN(Cc4ccccc4)CC3C2)cc1 (stereo not drawn) [Example 3, 3-benzyl-6-(4-bromobenzyl)-1,2,3,4,4a,5,6,7-octahydropyrazino[1,2-a][1,4]benzodiazepine]
  JC-1 max %: 226%
  EC50: 2.88 µM

## O=C(Cc1ccccc1)N1Cc2ccccc2N2CCN(Cc3ccccc3)CC2C1 (stereo not drawn) [Example 4, 1-(3-benzyl-1,2,3,4,4a,5-hexahydropyrazino[1,2-a][1,4]benzodiazepin-6(7H)-yl)-2-phenylethanone]
Homo sapiens, SK-N-SH, 18 h
  EC50: 2.42 µM
Homo sapiens, SK-N-SH
  Emax: 263%

## O=C(c1ccccc1)N1Cc2ccccc2N2CCN(Cc3ccccc3)CC2C1 (stereo not drawn) [Example 5, (3-benzyl-1,2,3,4,4a,5-hexahydropyrazino[1,2-a][1,4]benzodiazepin-6(7H)-yl)(phenyl)methanone]
Homo sapiens, SK-N-SH, 18 h
  EC50: 6.7 µM
Homo sapiens, SK-N-SH
  Emax: 57%

## c1ccc(CN2CCN3c4ccccc4C[N+](Cc4ccccc4)(Cc4ccccc4)CC3C2)cc1 (stereo not drawn) [Example 6, 3,6,6-tribenzyl-1,2,3,4,4a,5,6,7-octahydropyrazino[1,2-a][1,4]benzodiazepin-6-ium]
  JC-1 max %: 148%
  EC50: 6.44 µM

## c1ccc(CN2CCN3c4ccccc4CN(Cc4ccccc4)CC3C2)cc1 (stereo not drawn) [Example 7, 3,6-dibenzyl-1,2,3,4,4a,5,6,7-octahydropyrazino[1,2-a][1,4]benzodiazepine]
Homo sapiens, SK-N-SH, 18 h
  EC50: > 30 µM
Homo sapiens, SK-N-SH
  Emax: 24%

## CN1Cc2ccccc2N2CCN(Cc3ccccc3)CC2C1 (stereo not drawn) [Example 8, 3-benzyl-6-methyl-1,2,3,4,4a,5,6,7-octahydropyrazino[1,2-a][1,4]benzodiazepine]
Homo sapiens, SK-N-SH, 18 h
  EC50: 3.03 µM
Homo sapiens, SK-N-SH
  Emax: 204%

## c1ccc(CN2CCN3c4ccccc4CN(c4ncccn4)CC3C2)cc1 (stereo not drawn) [Example 9, 3-benzyl-6-(pyrimidin-2-yl)-1,2,3,4,4a,5,6,7-octahydropyrazino[1,2-a][1,4]benzodiazepine]
Homo sapiens, SK-N-SH, 18 h
  EC50: 2.59 µM
Homo sapiens, SK-N-SH
  Emax: 158%

## O=C(c1ccc(F)cc1)N1Cc2ccccc2N2CCN(Cc3ccccc3)CC2C1 (stereo not drawn) [Example 10, (3-benzyl-1,2,3,4,4a,5-hexahydropyrazino[1,2-a][1,4]benzodiazepin-6(7H)-yl)(4-fluorophenyl)methanone]
Homo sapiens, SK-N-SH, 18 h
  EC50: 2.74 µM
Homo sapiens, SK-N-SH
  Emax: 248%

## c1ccc(CN2CCN3c4ccccc4CN(c4cnccn4)CC3C2)cc1 (stereo not drawn) [Example 11, 3-benzyl-6-(pyrazin-2-yl)-1,2,3,4,4a,5,6,7-octahydropyrazino[1,2-a][1,4]benzodiazepine]
Homo sapiens, SK-N-SH, 18 h
  EC50: 5.61 µM
Homo sapiens, SK-N-SH
  Emax: 122%

## O=C(c1cnccn1)N1Cc2ccccc2N2CCN(Cc3ccccc3)CC2C1 (stereo not drawn) [Example 12, (3-benzyl-1,2,3,4,4a,5-hexahydropyrazino[1,2-a][1,4]benzodiazepin-6(7H)-yl)(pyrazin-2-yl)methanone]
Homo sapiens, SK-N-SH, 18 h
  EC50: 1.11 µM
Homo sapiens, SK-N-SH
  Emax: 198%

## O=C(N1Cc2ccccc2N2CCN(Cc3ccccc3)CC2C1)C1(c2ccccc2)CC1 (stereo not drawn) [Example 13, (3-benzyl-1,2,3,4,4a,5-hexahydropyrazino[1,2-a][1,4]benzodiazepin-6(7H)-yl)(1-phenylcyclopropyl)methanone]
Homo sapiens, SK-N-SH, 18 h
  EC50: 4.18 µM
Homo sapiens, SK-N-SH
  Emax: 175%

## O=C(N1CCOCC1)N1Cc2ccccc2N2CCN(Cc3ccccc3)CC2C1 (stereo not drawn) [Example 14, (3-benzyl-1,2,3,4,4a,5-hexahydropyrazino[1,2-a][1,4]benzodiazepin-6(7H)-yl)(morpholin-4-yl)methanone]
Homo sapiens, SK-N-SH, 18 h
  EC50: 0.754 µM
Homo sapiens, SK-N-SH
  Emax: 203%

## c1ccc(CN2CCN3c4ccccc4CN(c4ccccn4)CC3C2)cc1 (stereo not drawn) [Example 16, 3-benzyl-6-(pyridin-2-yl)-1,2,3,4,4a,5,6,7-octahydropyrazino[1,2-a][1,4]benzodiazepine]
Homo sapiens, SK-N-SH, 18 h
  EC50: 3.63 µM
Homo sapiens, SK-N-SH
  Emax: 131%

## Fc1ccc(CN2Cc3ccccc3N3CCN(Cc4ccccc4)CC3C2)cc1 (stereo not drawn) [Example 17, 3-benzyl-6-(4-fluorobenzyl)-1,2,3,4,4a,5,6,7-octahydropyrazino[1,2-a][1,4]benzodiazepine]
Homo sapiens, SK-N-SH, 18 h
  EC50: 4.48 µM
Homo sapiens, SK-N-SH
  Emax: 183%

## O=C(/C=C/c1ccccc1)N1Cc2ccccc2N2CCN(Cc3ccccc3)CC2C1 (stereo not drawn) [Example 20, (2E)-1-(3-benzyl-1,2,3,4,4a,5-hexahydropyrazino[1,2-a][1,4]benzodiazepin-6(7H)-yl)-3-phenylprop-2-en-1-one]
Homo sapiens, SK-N-SH, 18 h
  EC50: 5.47 µM
Homo sapiens, SK-N-SH
  Emax: 133%

## FC(F)(F)c1ccc(CN2Cc3ccccc3N3CCN(Cc4ccccc4)CC3C2)cc1 (stereo not drawn) [Example 21, 3-benzyl-6-[4-(trifluoromethyl)benzyl]-1,2,3,4,4a,5,6,7-octahydropyrazino[1,2-a][1,4]benzodiazepine]
Homo sapiens, SK-N-SH, 18 h
  EC50: 6.11 µM
Homo sapiens, SK-N-SH
  Emax: 168%

## CN1CCN2c3ccccc3N(Cc3ccc(Br)cc3)CCC2C1 (stereo not drawn) [Example 22, 7-(4-bromobenzyl)-3-methyl-1,2,3,4,4a,5,6,7-octahydropyrazino[1,2-a][1,5]benzodiazepine]
Homo sapiens, SK-N-SH, 18 h
  EC50: 2.95 µM
Homo sapiens, SK-N-SH
  Emax: 173%

## Fc1cc(CN2Cc3ccccc3N3CCN(Cc4ccccc4)CC3C2)ccc1Br (stereo not drawn) [Example 23, 3-benzyl-6-(4-bromo-3-fluorobenzyl)-1,2,3,4,4a,5,6,7-octahydropyrazino[1,2-a][1,4]benzodiazepine]
Homo sapiens, SK-N-SH, 18 h
  EC50: 5.72 µM
Homo sapiens, SK-N-SH
  Emax: 238%

## Fc1cc(F)cc(CN2Cc3ccccc3N3CCN(Cc4ccccc4)CC3C2)c1 (stereo not drawn) [Example 24, 3-benzyl-6-(3,5-difluorobenzyl)-1,2,3,4,4a,5,6,7-octahydropyrazino[1,2-a][1,4]benzodiazepine]
Homo sapiens, SK-N-SH, 18 h
  EC50: 4.77 µM
Homo sapiens, SK-N-SH
  Emax: 166%

## Fc1ccc(CN2Cc3ccccc3N3CCN(Cc4ccccc4)CC3C2)cc1F (stereo not drawn) [Example 25, 3-benzyl-6-(3,4-difluorobenzyl)-1,2,3,4,4a,5,6,7-octahydropyrazino[1,2-a][1,4]benzodiazepine]
Homo sapiens, SK-N-SH, 18 h
  EC50: 15.7 µM
Homo sapiens, SK-N-SH
  Emax: 128%
